# Tested on: HeLa cell
# Test: Cytotoxicity test (MTT, cell viability)
# Assay type: cell-based
# Conditions: HeLa cells, concentrations of 1 nM to 100 nM, cultured for 6 hours, 24 hours, or 48 hours
# Experimental: HeLa cell was seeded on a 96-well plate at 6×10^3 per well and was cultured overnight. Aqueous solutions of the compound 4 at concentrations of 0.1 nM, 1 nM, 10 nM and 100 nM were prepared as test agents, and the test agent at each concentration was added to the well, and HeLa cells were further cultured for 6, 24, and 48 hours. After the culturing for each of the above hours, MTT (3-(4,5-di-methylthiazol-2-yl)-2,5-diphenyltetrazolium bromide) reagent was added to the well, and the resultant product was further cultured for 2 hours.
# After the culturing for 2 hours, a solubilizing solution was added to the well, and formazan produced in the living cell was dissolved by pipetting. By sealing the 96-well plate and allowing the resultant product to stand in an incubator overnight at 37° C., formazan was completely solubilized. A plate reader was used to measure 570 nm (formazan dye) and 650 nm (background), and the cell viability of the well to which the test agent of each concentration was added was determined, with the cell viability of a well without the addition of a test agent being 100%.
# Culturing of HeLa cells and determination of cell viability of the well were performed as in the cytotoxicity test for the compound 4, except that a test agent was prepared using the compound 10 instead of the compound 4.
smiles,measurement,value
"CC1(C)C(/C=C/C=C/C=C/C=C/C=C/C=C2/N(CCCCS(=O)(=O)O)c3ccc4ccccc4c3C2(C)C)=[N+](CCCCS(=O)(=O)[O-])c2ccc3ccccc3c21 [compound 10, ICG-C11]",cytotoxicity (cell viability),did not exhibit cytotoxicity
